The record followed here is ChEMBL document CHEMBL3046140, “Design, synthesis, antimicrobial, anticancer evaluation, and QSAR studies of 4-(substituted benzylidene-amino)-1,5-dimethyl-2-phenyl-1,2-dihydropyrazol-3-ones” (Med Chem Res, 2012).

For experiment [1], the system named is Aspergillus niger. As to the kind of experiment: Fungicidal activity against Aspergillus niger MTCC 8189. It counts as functional.
Experiment [2] concerns Candida albicans. Nature of the experiment: Fungicidal activity against Candida albicans MTCC 227. It counts as functional.
Experiment [3] concerns Escherichia coli. As to the kind of experiment: Bactericidal activity against Escherichia coli MTCC 1652. It counts as functional.
Experiment [4] relates to Staphylococcus aureus. Nature of the experiment: Bactericidal activity against Staphylococcus aureus MTCC 2901. In kind it is functional.
For experiment [5], the system named is Bacillus subtilis. As to the kind of experiment: Bactericidal activity against Bacillus subtilis MTCC 2063. It counts as functional.
In experiment [6] the test system is Aspergillus niger. Nature of the experiment: Antifungal activity against Aspergillus niger MTCC 8189 after 7 days by tube dilution method. In kind it is functional.
Experiment [7] has as its system Candida albicans. As to the kind of experiment: Antifungal activity against Candida albicans MTCC 227 after 48 hr by tube dilution method. In kind it is functional.
The subject of experiment [8] is Escherichia coli. As to the kind of experiment: Antibacterial activity against Escherichia coli MTCC 1652 after 24 hr by tube dilution method. It counts as functional.
The subject of experiment [9] is Bacillus subtilis. As to the kind of experiment: Antibacterial activity against Bacillus subtilis MTCC 2063 after 24 hr by tube dilution method. It counts as functional.
Experiment [10] concerns Staphylococcus aureus. Nature of the experiment: Antibacterial activity against Staphylococcus aureus MTCC 2901 after 24 hr by tube dilution method. It counts as functional.
Experiment [11] has as its system HT-29. Nature of the experiment: Cytotoxicity against Homo sapiens (human) HT-29 cells after 72 hr by MTT assay. In kind it is functional, cell-based. Particulars: HT-29, 72 h, read-out: pIC50 (converted). For orientation: Formazan colour is commonly taken as a measure of viable cells.
Experiment [12] has as its system HCT-116. As to the kind of experiment: Cytotoxicity against Homo sapiens (human) HCT116 cells after 72 hr by MTT assay. In kind it is functional, cell-based. The following applies: HCT-116, 72 h, read-out: pIC50 (converted).

On to `Cc1c(/N=C/c2ccc(O)cc2)c(=O)n(-c2ccccc2)n1C`, for which the MFC in experiment [1] and in experiment [2] was more than 0.16 uM/ml throughout. Also, the MBC in experiment [3], in [4] and in [5] was more than 0.16 uM/ml each time. In addition, the “-logMIC” value in [6] was found to be 1.69; in [7], 1.39; in experiment [8] it was 1.39; in experiment [9] it was 1.39; in experiment [10] it was 1.39.
Regarding `Cc1c(/N=C/c2ccccc2)c(=O)n(-c2ccccc2)n1C`, the MFC in experiment [1] and in experiment [2] was more than 0.17 uM/ml each time. Moreover, the MBC in experiment [3], in [4] and in [5] was more than 0.17 uM/ml throughout. The “-logMIC” value in experiment [6] was determined as 1.37; in experiment [7], 1.37; in [8], 1.37; in experiment [9], 1.07; in experiment [10], 1.07.
As to `Cc1c(/N=C/c2ccc(Cl)cc2Cl)c(=O)n(-c2ccccc2)n1C`, the MFC in experiment [1] and in [2] was more than 0.14 uM/ml each time. Also, the MBC in experiment [3], in [4] and in experiment [5] was more than 0.14 uM/ml each time. Also, the “-logMIC” value in [6] amounted to 1.46; in [7] it was 1.46; in experiment [8], 1.46; in experiment [9], 1.16; in experiment [10], 1.16.
For the molecule `COc1ccc(/C=N/c2c(C)n(C)n(-c3ccccc3)c2=O)cc1`, the MFC in experiment [1] and in experiment [2] was more than 0.16 uM/ml each time. Moreover, the MBC in experiment [3], in experiment [4] and in experiment [5] was more than 0.16 uM/ml throughout. In addition, the “-logMIC” value in experiment [6] came out at 1.41; in experiment [7] it was 1.41; in experiment [8], 1.41; in experiment [9], 1.11; in [10], 1.11.
On to `COc1ccccc1/C=N/c1c(C)n(C)n(-c2ccccc2)c1=O`, for which the IC50 in experiment [11] was 70.8 µM. Further, the MFC in [1] and in experiment [2] was more than 0.16 uM/ml in each case. Also, the MBC in experiment [3], in [4] and in experiment [5] was more than 0.16 uM/ml in each case. Besides, the “-logMIC” value in experiment [6], in [7], in [8], in [9] and in [10] was 1.41 throughout.
With `OC(Cn1cncn1)(Cn1cncn1)c1ccc(F)cc1F` [FLUCONAZOLE], the MFC in [1] and in [2] was 0.04 uM/ml each time. In addition, the “-logMIC” value in experiment [6] and in experiment [7] was 2.64 in each case.
As to `Cc1c(/N=C/c2cccc(O)c2)c(=O)n(-c2ccccc2)n1C`, the MFC in experiment [1] and in experiment [2] was more than 0.16 uM/ml throughout. The MBC in experiment [3], in [4] and in [5] was more than 0.16 uM/ml in each case. Besides, the “-logMIC” value in [6] is recorded as 1.39; in experiment [7], 1.39; in experiment [8], 1.39; in experiment [9], 1.39; in experiment [10] it was 1.09.
For `COc1cccc(/C=N/c2c(C)n(C)n(-c3ccccc3)c2=O)c1O`, the IC50 in experiment [12] was 89.1 µM. Besides, the MFC in experiment [1] and in experiment [2] was more than 0.15 uM/ml throughout. For the same molecule, the MBC in experiment [3], in experiment [4] and in experiment [5] was more than 0.15 uM/ml in each case. In addition, the “-logMIC” value in experiment [6] is on record as 1.13; in [7] it was 1.43; in experiment [8] it was 1.43; in [9], 1.13; in [10] it was 1.13.
Turning to `Cc1c(/N=C/c2cccc([N+](=O)[O-])c2)c(=O)n(-c2ccccc2)n1C`, the MFC in experiment [1] and in [2] was more than 0.15 uM/ml in each case. For the same molecule, the MBC in experiment [3], in experiment [4] and in [5] was more than 0.15 uM/ml in each case. Further, the “-logMIC” value is reported as 1.43 in [6]; 1.43 in experiment [7]; 1.43 in experiment [8]; 1.43 in [9]; 1.13 in experiment [10].
Regarding `COc1cc(/C=N/c2c(C)n(C)n(-c3ccccc3)c2=O)cc(OC)c1OC`, the values for the MFC in experiment [1] and in experiment [2] were 0.13 uM/ml and more than 0.13 uM/ml, respectively. The MBC in experiment [3], in experiment [4] and in experiment [5] was more than 0.13 uM/ml throughout. In addition, the “-logMIC” value in experiment [6], in experiment [7], in experiment [8], in experiment [9] and in experiment [10] was 1.48 throughout.
For `COc1ccc(/C=N/c2c(C)n(C)n(-c3ccccc3)c2=O)cc1OC`, the MFC in experiment [1] and in [2] was more than 0.14 uM/ml throughout. Further, the MBC in experiment [3], in experiment [4] and in experiment [5] was more than 0.14 uM/ml in each case. Also, the “-logMIC” value in experiment [6] was 1.45; in experiment [7], 1.45; in [8] it was 1.45; in experiment [9], 1.15; in [10], 1.15.
For the molecule `Cc1c(/N=C/c2ccc(Cl)cc2)c(=O)n(-c2ccccc2)n1C`, the MFC in [1] is listed as 0.15 uM/ml; in [2] it was more than 0.15 uM/ml. Moreover, the MBC in experiment [3], in [4] and in [5] was more than 0.15 uM/ml throughout. Moreover, the “-logMIC” value is reported as 1.42 in experiment [6]; 1.42 in experiment [7]; 1.12 in experiment [8]; 1.12 in [9]; 1.12 in experiment [10].
Regarding `CCn1cc(C(=O)O)c(=O)c2cc(F)c(N3CCNCC3)cc21` [NORFLOXACIN], the MBC in experiment [3], in [4] and in experiment [5] was 0.019 uM/ml each time. The “-logMIC” value in [8], in experiment [9] and in [10] was 2.61 throughout.
`COc1cccc(/C=N/c2c(C)n(C)n(-c3ccccc3)c2=O)c1`: the results for the MFC in [1] and in experiment [2] were 0.16 uM/ml and more than 0.16 uM/ml, respectively. The MBC in experiment [3], in experiment [4] and in [5] was more than 0.16 uM/ml throughout. Besides, the “-logMIC” value in experiment [6] came out at 1.41; in [7], 1.41; in experiment [8] it was 1.41; in experiment [9], 1.11; in experiment [10], 1.11.
`CCOc1cc(/C=N/c2c(C)n(C)n(-c3ccccc3)c2=O)ccc1O`: the MFC in experiment [1] and in experiment [2] was more than 0.14 uM/ml throughout. The MBC in experiment [3], in experiment [4] and in experiment [5] was more than 0.14 uM/ml in each case. The “-logMIC” value in experiment [6] is 1.45; in [7], 1.45; in experiment [8], 1.45; in experiment [9], 1.15; in [10], 1.15.
As to `O=c1[nH]cc(F)c(=O)[nH]1` [FLUOROURACIL], the results for the IC50 in experiment [11] and in [12] were 85.1 µM and 45.7 µM, respectively.
`Cc1c(/N=C/c2ccccc2Cl)c(=O)n(-c2ccccc2)n1C`: the MFC in experiment [1] and in experiment [2] was more than 0.15 uM/ml throughout. For the same molecule, the MBC in experiment [3], in experiment [4] and in experiment [5] was more than 0.15 uM/ml throughout. The “-logMIC” value in [6] turned out to be 1.42; in experiment [7], 1.42; in experiment [8], 1.42; in experiment [9], 1.42; in experiment [10] it was 1.12.
With `Cc1c(/N=C/c2cccc(Cl)c2)c(=O)n(-c2ccccc2)n1C`, the MFC in experiment [1] and in experiment [2] was more than 0.15 uM/ml throughout. Besides, the MBC in experiment [3], in [4] and in [5] was more than 0.15 uM/ml in each case. Besides, the “-logMIC” value in [6] came to 1.42; in experiment [7], 2.02; in experiment [8], 2.02; in [9] it was 1.72; in experiment [10] it was 1.72.
